Results from patent US20240398805A1, “QUINAZOLINE DERIVED COMPOUNDS AS EGFR INHIBITORS AND THEIR USES THEREOF” (ACCUTAR BIOTECHNOLOGY INC., priority 2021, published 2024).

Assays:
Type in all cases: cell-based
[1] = test system: HCC827-ASV cells (human EGFR exon 20 insertion mutant A769_D770insASV); test: Cell growth inhibition (CellTiter-Glo, 3 days) in HCC827-ASV; details: 72 h, 3 days after administration
Method in brief: (§1)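 Growth inhibition used a CellTiter-Glo luminescence read-out after 3 days of compound exposure at various concentrations. Cells were plated the day before at 5000/well in RPMI plus 10% FBS. The lines are HCC827 transduced by lentivirus with codon-optimized EGFR ASV or ERBB2 YVMA exon 20 insertions.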

A431 cells = test: Cell growth inhibition (CellTiter-Glo, 3 days) in A431; details: Homo sapiens, A-431, 72 h, 3 days after administration
Method in brief: (§2)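 HCC827 cells in RPMI/10% FBS and A431 cells in DMEM/10% FBS were seeded at 5000 cells/well and left overnight. Compound was then added over a concentration range for 3 days of incubation, and viability was read by CellTiter-Glo luminescence.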

HCC827 cells = test: Cell growth inhibition (CellTiter-Glo, 3 days) in HCC827; details: Homo sapiens, 72 h, 3 days after administration
Method in brief: as §2

[2] = test system: HCC827-YVMA cells (human ERBB2 exon20 insertion mutant A775_G776ins YVMA); test: Cell growth inhibition (CellTiter-Glo, 3 days) in HCC827-YVMA; details: 72 h, 3 days after administration
Method in brief: as §1

[3] = test system: HCC827-SVD cells (human EGFR exon 20 insertion mutant D770_N771 insSVD); test: Cell growth inhibition (CellTiter-Glo, 3 days) in HCC827-SVD; details: 72 h, 3 days after administration
Method in brief: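 HCC827 cells carrying lentiviral codon-optimized EGFR D770_N771 insSVD, with endogenous EGFR knocked out by CRISPR (single clone), seeded at 5000 cells/well in RPMI with 10% FBS. Viability read by CellTiter-Glo luminescence.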

| SMILES | GI50 [1] [µM] | GI50 (A431 cells) [µM] | GI50 (HCC827 cells) [µM] | GI50 [2] [µM] | GI50 [3] [µM] |
| --- | --- | --- | --- | --- | --- |
| C=CC(=O)N1CCC(Nc2cc3c(Nc4ccc(Oc5ccnc(C(=O)NC)c5)cc4F)ncnc3cc2OC)CC1 [Compound 181, 4-(4-((6-((1-acryloylpiperidin-4-yl)amino)-7-methoxyquinazolin-4-yl)amino)-3-fluorophenoxy)-N-methylpicolinamide] | < 0.03 | 0.1 to 0.3 | < 0.03 | < 0.03 | < 0.03 |
| C=CC(=O)N1CCC(Nc2cc3c(Nc4ccc(Oc5ccnc(N6CCOCC6)c5)cc4F)ncnc3cc2OC)CC1 [Compound 35, 1-(4-((4-((2-fluoro-4-((2-morpholinopyridin-4-yl)oxy)phenyl)amino)-7-methoxyquinazolin-6-yl)amino)piperidin-1-yl)prop-2-en-1-one] | < 0.03 | ≥ 1 | 0.1 to 0.3 | < 0.03 | < 0.03 |
| C=CC(=O)N1CCC(Nc2cc3c(Nc4ccc(Oc5ccnc(N6CC(F)(F)C6)c5)cc4F)ncnc3cc2OC)CC1 [Example 201, 1-(4-((4-((4-((2-(3,3-difluoroazetidin-1-yl)pyridin-4-yl)oxy)-2-fluorophenyl)amino)-7-methoxyquinazolin-6-yl)amino)piperidin-1-yl)prop-2-en-1-one] | < 0.03 | 0.6 to 1 | 0.06 to 0.1 | < 0.03 | < 0.03 |
| C=CC(=O)N1CC[C@@H](Nc2cc3c(Nc4ccc(Oc5ccn(-c6cnc(OC)nc6)n5)cc4F)ncnc3cc2OC)C1 [Compound 9, (R)-1-(3-((4-((2-fluoro-4-((1-(2-methoxypyrimidin-5-yl)-1H-pyrazol-3-yl)oxy)phenyl)amino)-7-methoxyquinazolin-6-yl)amino)pyrrolidin-1-yl)prop-2-en-1-one] | ≥ 1 | ≥ 1 | ≥ 1 | ≥ 1 | ≥ 1 |
| C=CC(=O)N1CCC(Nc2cc3c(Nc4ccc(Oc5ccnc(N6CC[C@H](O)C6)c5)cc4F)ncnc3cc2OC)CC1 [Example 174, (S)-1-(4-((4-((2-fluoro-4-((2-(3-hydroxypyrrolidin-1-yl)pyridin-4-yl)oxy)phenyl)amino)-7-methoxyquinazolin-6-yl)amino)piperidin-1-yl)prop-2-en-1-one] | 0.1 to 0.3 | ≥ 1 | 0.6 to 1 | 0.1 to 0.3 | 0.1 to 0.3 |
| C=CC(=O)N1CCC(Nc2cc3c(Nc4ccc(Oc5ccnc(NC6CC6)c5)cc4F)ncnc3cc2OC)CC1 [Example 244, 1-(4-((4-((4-((2-(cyclopropylamino)pyridin-4-yl)oxy)-2-fluorophenyl)amino)-7-methoxyquinazolin-6-yl)amino)piperidin-1-yl)prop-2-en-1-one] | < 0.03 | 0.06 to 0.1 | < 0.03 | < 0.03 | < 0.03 |
| C=CC(=O)N1CCC(Nc2cc3c(Nc4ccc(Oc5ccn(-c6cnc(C)c(Cl)c6)n5)cc4F)ncnc3cc2OC)CC1 [Compound 10, 1-(4-((4-((4-((1-(5-chloro-6-methylpyridin-3-yl)-1H-pyrazol-3-yl)oxy)-2-fluorophenyl)amino)-7-methoxyquinazolin-6-yl)amino)piperidin-1-yl)prop-2-en-1-one] | < 0.03 | 0.3 to 0.6 | 0.03 to 0.06 | < 0.03 | < 0.03 |
| C=CC(=O)N1CCC(Nc2cc3c(Nc4ccc(Oc5ccnc(NC6CCN(C)CC6)c5)cc4F)ncnc3cc2OC)CC1 [Example 184, 1-(4-((4-((2-fluoro-4-((2-((1-methylpiperidin-4-yl)amino)pyridin-4-yl)oxy)phenyl)amino)-7-methoxyquinazolin-6-yl)amino)piperidin-1-yl)prop-2-en-1-one] | ≥ 1 | ≥ 1 | ≥ 1 | ≥ 1 | ≥ 1 |
| C=CC(=O)N1CCC(Nc2cc3c(Nc4ccc(Oc5ccn(-c6cnc(C)c(C#N)c6)n5)cc4F)ncnc3cc2OC)CC1 [Compound 11, 5-(3-(4-((6-((1-acryloylpiperidin-4-yl)amino)-7-methoxyquinazolin-4-yl)amino)-3-fluorophenoxy)-1H-pyrazol-1-yl)-2-methylnicotinonitrile] | 0.03 to 0.06 | 0.1 to 0.3 | 0.06 to 0.1 | 0.06 to 0.1 | 0.03 to 0.06 |
| C=CC(=O)N1CC[C@@H](Oc2cc3c(Nc4ccc(Oc5ccn(-c6cnc(OC)nc6)n5)cc4F)ncnc3cc2OC)C1 [Compound 80, (R)-1-(3-((4-((2-fluoro-4-((1-(2-methoxypyrimidin-5-yl)-1H-pyrazol-3-yl)oxy)phenyl)amino)-7-methoxyquinazolin-6-yl)oxy)pyrrolidin-1-yl) prop-2-en-1-one] | ≥ 1 | ≥ 1 | ≥ 1 | ≥ 1 | ≥ 1 |
| C=CC(=O)N1CCC(Nc2cc3c(Nc4ccc(Oc5ccn(-c6ccnc(OC)n6)n5)cc4F)ncnc3cc2OC)CC1 [Example 47, 1-(4-((4-((2-fluoro-4-((1-(2-methoxypyrimidin-4-yl)-1H-pyrazol-3-yl)oxy)phenyl)amino)-7-methoxyquinazolin-6-yl)amino)piperidin-1-yl)prop-2-en-1-one] | < 0.03 | 0.3 to 0.6 | 0.03 to 0.06 | < 0.03 | 0.03 to 0.06 |
| C=CC(=O)N1CCC(Nc2cc3c(Nc4ccc(Oc5ccnc(-c6cnn(C)c6)c5)cc4F)ncnc3cc2OC)CC1 [Compound 34, 1-(4-((4-((2-fluoro-4-((2-(1-methyl-1H-pyrazol-4-yl)pyridin-4-yl)oxy)phenyl)amino)-7-methoxyquinazolin-6-yl)amino)piperidin-1-yl)prop-2-en-1-one] | 0.06 to 0.1 | ≥ 1 | 0.6 to 1 | 0.06 to 0.1 | 0.03 to 0.06 |
| C=CC(=O)N1CCC(Nc2cc3c(Nc4ccc(Oc5ccnc(N6CC(C)(C#N)C6)c5)cc4F)ncnc3cc2OC)CC1 [Example 205, 1-(4-(4-((6-((1-acryloylpiperidin-4-yl)amino)-7-methoxyquinazolin-4-yl)amino)-3-fluorophenoxy)pyridin-2-yl)-3-methylazetidine-3-carbonitrile] | < 0.03 | 0.1 to 0.3 | < 0.03 | < 0.03 | < 0.03 |
| C=CC(=O)N1CCC(Nc2cc3c(Nc4ccc(Oc5ccnc(N6CC7CCCC7C6)c5)cc4F)ncnc3cc2OC)CC1 (stereo not drawn) [Example 239, 1-(4-((4-((2-fluoro-4-((2-(hexahydrocyclopenta [c]pyrrol-2(1H)-yl)pyridin-4-yl)oxy)phenyl)amino)-7-methoxyquinazolin-6-yl)amino)piperidin-1-yl)prop-2-en-1-one] | 0.06 to 0.1 | 0.3 to 0.6 | < 0.03 | 0.06 to 0.1 | < 0.03 |
| C=CC(=O)N1CCC(Nc2cc3c(Nc4ccc(Oc5ccnc(N6CC(F)(F)C(F)(F)C6)c5)cc4F)ncnc3cc2OC)CC1 [Example 261, 1-(4-((4-((2-fluoro-4-((2-(3,3,4,4-tetrafluoropyrrolidin-1-yl)pyridin-4-yl)oxy)phenyl)amino)-7-methoxyquinazolin-6-yl)amino)piperidin-1-yl)prop-2-en-1-one] | 0.03 to 0.06 | 0.6 to 1 | 0.1 to 0.3 | 0.03 to 0.06 | 0.03 to 0.06 |
